Ki and IC50 data for ten molecules are collected here from patent US20240199635A1, “TETRAHYDROTHIENO PYRIDINE DERIVATIVES AS DDRS INHIBITORS” (CHIESI FARMACEUTICI S.P.A., priority 2021, published 2024).

In test [1] the target is T1, DDR1 (Homo sapiens (Human), UniProt Q08345). Put plainly: DDR1 binding assay (LanthaScreen Europium Kinase Binding assay). To be noted: potency class, read-out: Ki DDR1. In short, it runs like this: (§1)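 TR-FRET tracer displacement: compounds incubated 1 h at room temperature with 5 nM DDR1 (20 nM Tracer 178) or 5 nM DDR2 (10 nM Tracer 178), 2 nM Eu-anti-GST antibody, HEPES pH 7.5 buffer. 665/615 nm ratio read; IC50 from 4-parameter fit, converted to Ki by Cheng-Prusoff.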
T1 sequence (Q08345 19-913): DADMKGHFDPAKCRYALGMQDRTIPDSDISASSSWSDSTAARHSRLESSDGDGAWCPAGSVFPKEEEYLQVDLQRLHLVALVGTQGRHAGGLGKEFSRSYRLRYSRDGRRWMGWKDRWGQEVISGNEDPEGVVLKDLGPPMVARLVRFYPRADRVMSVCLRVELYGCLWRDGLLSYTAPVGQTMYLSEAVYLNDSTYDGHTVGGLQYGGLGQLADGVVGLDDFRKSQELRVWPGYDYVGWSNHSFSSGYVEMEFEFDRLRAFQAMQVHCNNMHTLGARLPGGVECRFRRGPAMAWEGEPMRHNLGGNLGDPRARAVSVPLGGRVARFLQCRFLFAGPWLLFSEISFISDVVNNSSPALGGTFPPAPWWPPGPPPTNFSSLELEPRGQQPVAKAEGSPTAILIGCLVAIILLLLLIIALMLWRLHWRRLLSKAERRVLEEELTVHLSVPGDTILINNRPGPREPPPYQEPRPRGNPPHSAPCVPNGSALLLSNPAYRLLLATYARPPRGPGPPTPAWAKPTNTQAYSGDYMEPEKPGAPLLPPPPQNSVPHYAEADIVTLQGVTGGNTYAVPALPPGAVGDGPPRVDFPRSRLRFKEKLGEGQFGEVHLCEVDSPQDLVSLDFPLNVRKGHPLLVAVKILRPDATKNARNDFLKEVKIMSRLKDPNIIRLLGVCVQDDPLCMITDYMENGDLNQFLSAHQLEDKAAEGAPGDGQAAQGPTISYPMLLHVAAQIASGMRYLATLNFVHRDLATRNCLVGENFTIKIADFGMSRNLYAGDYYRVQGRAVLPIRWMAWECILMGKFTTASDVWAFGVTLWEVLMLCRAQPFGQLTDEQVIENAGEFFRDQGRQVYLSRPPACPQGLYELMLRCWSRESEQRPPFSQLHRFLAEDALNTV

The target of test [2] is T1, DDR1. Kind of test: DDR1 cell based assay (PathHunter U2OS DDR1 assay). To be noted: U2OS-DDR1 cells, Type II Collagen stimulation, potency class. In short, it runs like this: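 Receptor activation measured by enzyme-fragment complementation luminescence in engineered U2OS cells. Compound added 30 min before overnight challenge with 20 μg/ml bovine collagen II; data scaled between vehicle and collagen-stimulated controls, IC50 derived by four-parameter variable-slope fitting.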

The target of test [3] is T2, DDR2 (Homo sapiens (Human), UniProt Q16832). Kind of test: DDR2 binding assay (LanthaScreen Europium Kinase Binding assay). As to conditions: potency class, read-out: Ki DDR2. In short, it runs like this: as §1
T2 sequence (Q16832 22-855): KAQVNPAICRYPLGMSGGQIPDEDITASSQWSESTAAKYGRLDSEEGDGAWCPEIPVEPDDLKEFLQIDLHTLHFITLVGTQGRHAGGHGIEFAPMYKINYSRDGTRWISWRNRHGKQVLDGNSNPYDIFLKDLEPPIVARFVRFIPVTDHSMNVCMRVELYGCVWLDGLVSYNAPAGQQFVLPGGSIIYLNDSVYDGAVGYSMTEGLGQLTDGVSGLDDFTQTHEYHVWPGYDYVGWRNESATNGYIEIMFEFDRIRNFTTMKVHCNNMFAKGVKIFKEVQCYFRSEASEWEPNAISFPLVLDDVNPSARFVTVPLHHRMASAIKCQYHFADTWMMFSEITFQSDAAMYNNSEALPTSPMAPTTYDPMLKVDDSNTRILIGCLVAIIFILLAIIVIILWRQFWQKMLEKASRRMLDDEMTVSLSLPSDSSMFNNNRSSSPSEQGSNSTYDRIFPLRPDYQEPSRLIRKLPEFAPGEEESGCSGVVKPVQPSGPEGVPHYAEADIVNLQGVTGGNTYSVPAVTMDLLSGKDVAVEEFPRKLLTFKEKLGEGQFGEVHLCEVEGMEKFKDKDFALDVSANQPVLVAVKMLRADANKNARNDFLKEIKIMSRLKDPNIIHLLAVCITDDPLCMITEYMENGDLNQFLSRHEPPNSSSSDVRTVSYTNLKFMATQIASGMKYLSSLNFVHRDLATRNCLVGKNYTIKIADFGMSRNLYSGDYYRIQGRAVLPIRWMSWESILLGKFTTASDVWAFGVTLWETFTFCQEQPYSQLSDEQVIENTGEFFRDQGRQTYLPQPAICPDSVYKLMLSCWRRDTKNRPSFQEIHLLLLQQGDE
In test [4] the target is T2, DDR2. Put plainly: DDR2 cell based assay (phospho-ELISA in HEK293T-DDR2 recombinant cells). To be noted: DDR2 phosphorylation, Type II Collagen stimulation, potency class, read-out: IC50DDR2. Here is the method: The inhibition of DDR2 phosphorylation by compounds was evaluated in HEK293T-DDR2 recombinant cells by phospho-ELISA assay. Briefly, HEK293T-DDR2 cells were seeded in poly-D-lysine-coated 24-well plates at a density of 250,000 cells/well and incubated for 1.5 hours at 37° C. and 5% CO2 in DMEM+10% FBS. After that, the medium was changed to serum-free DMEM and cells were incubated for 3 hours. Then. test compounds were added at different concentrations 30 minutes before stimulation with bovine Type II Collagen at […] for further 3 hours. For DDR2 phospho-ELISA assay (DuoSet IC Human Phospho-DDR2; R&D Systems), protein extracts were obtained by adding 60 μl/well of lysis buffer prepared according to the manufacturer's instructions. Protein concentration in the samples was determined by BCA assay and the levels of phospho-DDR2 were determined following R&D Systems indications. Raw data were normalized to maximal inhibition control (0% for normalization) and positive control (100% for normalization; cells treated with 20 μg/ml collagen II) and IC50 parameters were calculated in GraphPad Prism 8.0 software, using sigmoidal dose-response curve fitting with variable slope.

In the case of `Cn1nc(NC(=O)c2csc3c2CCN(Cc2cnc(N)nc2)C3)cc1C(C)(C)C` [Example 63, 6-((2-aminopyrimidin-5-yl)methyl)-N-(5-(tert-butyl)-1-methyl-1H-pyrazol-3-yl)-4,5,6,7-tetrahydrothieno[2,3-c]pyridine-3-carboxamide], the Ki in test [1] and in test [3] was less than 25 nM in each case. The IC50 in test [2] and in test [4] was less than 25 nM each time.
For `CC(=O)Nc1ccc(CN2CCc3c(C(=O)Nc4cc(F)cc(C(F)(F)F)c4)csc3C2)cn1` [Example 42, 6-((6-acetamidopyridin-3-yl)methyl)-N-(3-fluoro-5-(trifluoromethyl)phenyl)-4,5,6,7-tetrahydrothieno[2,3-c]pyridine-3-carboxamide], the inhibition constant Ki in test [1] and in test [3] was less than 25 nM in each case. The IC50 in test [2] and in test [4] was less than 25 nM throughout.
Regarding `CC(=O)Nc1ncc(CN2CCc3c(C(=O)Nc4cc(F)cc(C(F)(F)F)c4)csc3C2)cn1` [Example 39, 6-((2-acetamidopyrimidin-5-yl)methyl)-N-(3-fluoro-5-(trifluoromethyl)phenyl)-4,5,6,7-tetrahydrothieno[2,3-c]pyridine-3-carboxamide], the Ki in test [1] and in test [3] was less than 25 nM each time. Further, the IC50 in test [2] and in test [4] was 25 to 50 nM each time.
On to `O=C(Nc1cc(F)cc(C(F)(F)F)c1)c1csc2c1CCN(Cc1cncnc1)C2` [Example 4, N-(3-fluoro-5-(trifluoromethyl)phenyl)-6-(pyrimidin-5-ylmethyl)-4,5,6,7-tetrahydrothieno[2,3-c]pyridine-3-carboxamide], for which the Ki in test [1] and in test [3] was less than 25 nM each time. Also, the IC50 in test [2] and in test [4] was less than 25 nM each time.
On to `CC(F)(F)c1cccc(NC(=O)c2csc3c2CCN(Cc2cnc(N)nc2)C3)c1` [Example 58, 6-((2-aminopyrimidin-5-yl)methyl)-N-(3-(1,1-difluoroethyl)phenyl)-4,5,6,7-tetrahydrothieno[2,3-c]pyridine-3-carboxamide], for which the Ki in test [1] and in test [3] was less than 25 nM each time. Also, the IC50 in test [2] and in test [4] was 25 to 50 nM in each case.
Regarding `Cn1cc(Nc2ncc(CN3CCc4c(C(=O)Nc5cc(C(C)(C)C)nn5C)csc4C3)cn2)cn1` [Example 16, N-(3-(tert-butyl)-1-methyl-1H-pyrazol-5-yl)-6-((2-((1-methyl-1H-pyrazol-4-yl)amino)pyrimidin-5-yl)methyl)-4,5,6,7-tetrahydrothieno[2,3-c]pyridine-3-carboxamide], the Ki in test [1] and in test [3] was less than 25 nM in each case. Moreover, the IC50 in test [2] and in test [4] was less than 25 nM throughout.
As to `Nc1ncncc1CN1CCc2c(C(=O)Nc3cc(F)cc(C(F)(F)F)c3)csc2C1` [Example 45, 6-((4-aminopyrimidin-5-yl)methyl)-N-(3-fluoro-5-(trifluoromethyl)phenyl)-4,5,6,7-tetrahydrothieno[2,3-c]pyridine-3-carboxamide], the Ki in test [1] and in test [3] was less than 25 nM throughout. Also, the IC50 in test [2] and in test [4] was less than 25 nM in each case.
As to `CN(C)CC(=O)Nc1cncc(CN2CCc3c(C(=O)Nc4cccc(C(F)(F)F)c4)csc3C2)c1` [Example 31, 6-((5-(2-(dimethylamino)acetamido)pyridin-3-yl)methyl)-N-(3-(trifluoromethyl)phenyl)-4,5,6,7-tetrahydrothieno[2,3-c]pyridine-3-carboxamide], the Ki in test [1] and in test [3] was less than 25 nM in each case. The IC50 in test [2] and in test [4] was 25 to 50 nM in each case.
In the case of `Cn1cc(Nc2ncc(CN3CCc4c(C(=O)Nc5cccc(C(F)(F)F)c5)csc4C3)cn2)cn1` [Example 18, 6-((2-((1-methyl-1H-pyrazol-4-yl)amino)pyrimidin-5-yl)methyl)-N-(3-(trifluoromethyl)phenyl)-4,5,6,7-tetrahydrothieno[2,3-c]pyridine-3-carboxamide], the Ki in test [1] and in test [3] was less than 25 nM throughout. Moreover, the IC50 in test [2] and in test [4] was less than 25 nM throughout.
In the case of `Nc1ncc(CN2CCc3c(C(=O)Nc4cc(F)cc(C(F)(F)F)c4)csc3C2)cn1` [Example 38, 6-((2-aminopyrimidin-5-yl)methyl)-N-(3-fluoro-5-(trifluoromethyl)phenyl)-4,5,6,7-tetrahydrothieno[2,3-c]pyridine-3-carboxamide], the Ki in test [1] and in test [3] was less than 25 nM in each case. For the same molecule, the IC50 in test [2] and in test [4] was less than 25 nM throughout.
